Measured values from US10660977B2, “Method for treating biological tissue and biological tissue” (WASEDA UNIVERSITY, priority 2012, dated 2020).

Assay: Concentration of trehalose dissolved in PBS
Format: physicochemical
Conditions: PBS at 37° C.
Description: Also, the maximum concentration of trehalose was set to 50% because the concentration of trehalose dissolved in PBS at 37° C. was about 50%.

- concentration of trehalose dissolved in PBS: about 50%
SMILES: OC[C@H]1O[C@H](O[C@H]2O[C@H](CO)[C@@H](O)[C@H](O)[C@H]2O)[C@H](O)[C@@H](O)[C@@H]1O [trehalose]
